# Test system: 876862-298-R-J1-PDC complex spheroids, viability % test/control
# Experiment: Anticancer human tumor 876862-298-R-J1-PDC patient-derived endometrial carcinoma cell line growth inhibition [CLK]
# Details: for IC50: curve of first compound; for viability, T/C: stronger effect = lower value
# Summary of the method: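 Multi-cell-type spheroids combined patient-derived tumor cells with HUVEC endothelial cells and human mesenchymal stem cells. Paired agents were dosed in half-log steps down from about clinical Cmax, or from 10 microM where Cmax was unknown.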
# [1] = second compound 0.0316 µM, first compound 0.0316 µM
# [2] = second compound 0.0316 µM, first compound 0.1 µM
# [3] = second compound 0.0316 µM, first compound 0.316 µM
# [4] = second compound 0.0316 µM, first compound 1 µM
# [5] = second compound 0.0316 µM, first compound 3.16 µM
# [6] = second compound 0.0316 µM, first compound 10 µM
# [7] = second compound 0.1 µM, first compound 0.0316 µM
# [8] = second compound 0.1 µM, first compound 0.1 µM
# [9] = second compound 0.1 µM, first compound 0.316 µM
# [10] = second compound 0.1 µM, first compound 1 µM
# [11] = second compound 0.1 µM, first compound 3.16 µM
# [12] = second compound 0.1 µM, first compound 10 µM
# [13] = second compound 0.316 µM, first compound 0.0316 µM
# [14] = second compound 0.316 µM, first compound 0.1 µM
# [15] = second compound 0.316 µM, first compound 0.316 µM
# [16] = second compound 0.316 µM, first compound 1 µM
# [17] = second compound 0.316 µM, first compound 3.16 µM
# [18] = second compound 0.316 µM, first compound 10 µM
# [19] = second compound 1 µM, first compound 0.0316 µM
# [20] = second compound 1 µM, first compound 0.1 µM
# [21] = second compound 1 µM, first compound 0.316 µM
# [22] = second compound 1 µM, first compound 1 µM
# [23] = second compound 1 µM, first compound 3.16 µM
# [24] = second compound 1 µM, first compound 10 µM
# [25] = second compound 3.16 µM, first compound 0.0316 µM
# [26] = second compound 3.16 µM, first compound 0.1 µM
# [27] = second compound 3.16 µM, first compound 0.316 µM
# [28] = second compound 3.16 µM, first compound 1 µM
# [29] = second compound 3.16 µM, first compound 3.16 µM
# [30] = second compound 3.16 µM, first compound 10 µM
# [31] = second compound 10 µM, first compound 0.0316 µM
# [32] = second compound 10 µM, first compound 0.1 µM
# [33] = second compound 10 µM, first compound 0.316 µM
# [34] = second compound 10 µM, first compound 1 µM
# [35] = second compound 10 µM, first compound 3.16 µM
# [36] = second compound 10 µM, first compound 10 µM
# 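Also: spheroids exposed to drugs for 7 days before readout.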
# 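For viability, T/C in this document: 100% = DMSO vehicle control wells.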
compound,measurement,setting,value
CC(=O)O[C@H]1C(=O)[C@@]2(C)[C@H]([C@H](OC(=O)c3ccccc3)[C@]3(O)C[C@H](OC(=O)[C@H](O)[C@@H](NC(=O)c4ccccc4)c4ccccc4)C(C)=C1C3(C)C)[C@]1(OC(C)=O)CO[C@@H]1C[C@@H]2O + CN1CCN(c2cc(C(=O)Nc3cc4cc(-c5cnn(C)c5)ccc4cn3)ccn2)CC1,IC50,second compound 0.0316 µM,< 31.6 nM
same,IC50,second compound 0.1 µM,< 31.6 nM
same,IC50,second compound 0.316 µM,< 31.6 nM
same,IC50,second compound 1 µM,< 31.6 nM
same,IC50,second compound 3.16 µM,< 31.6 nM
same,IC50,second compound 10 µM,< 31.6 nM
same,"viability, T/C",[1],32.4%
same,"viability, T/C",[2],28.7%
same,"viability, T/C",[3],30.5%
same,"viability, T/C",[4],28.1%
same,"viability, T/C",[5],30.7%
same,"viability, T/C",[6],34.8%
same,"viability, T/C",[7],28.6%
same,"viability, T/C",[8],24.5%
same,"viability, T/C",[9],22.7%
same,"viability, T/C",[10],21.3%
same,"viability, T/C",[11],23.5%
same,"viability, T/C",[12],24.1%
same,"viability, T/C",[13],1.74%
same,"viability, T/C",[14],1.82%
same,"viability, T/C",[15],2.01%
same,"viability, T/C",[16],2.21%
same,"viability, T/C",[17],2.68%
same,"viability, T/C",[18],4.53%
same,"viability, T/C",[19],0.82%
same,"viability, T/C",[20],0.89%
same,"viability, T/C",[21],0.6%
same,"viability, T/C",[22],0.59%
same,"viability, T/C",[23],0.84%
same,"viability, T/C",[24],0.56%
same,"viability, T/C",[25],0.93%
same,"viability, T/C",[26],0.84%
same,"viability, T/C",[27],0.96%
same,"viability, T/C",[28],0.79%
same,"viability, T/C",[29],0.78%
same,"viability, T/C",[30],0.55%
same,"viability, T/C",[31],0.6%
same,"viability, T/C",[32],0.59%
same,"viability, T/C",[33],0.57%
same,"viability, T/C",[34],0.58%
same,"viability, T/C",[35],0.66%
same,"viability, T/C",[36],0.58%
CCc1c2c(nc3ccc(O)cc13)-c1cc3c(c(=O)n1C2)COC(=O)[C@]3(O)CC + CN1CCN(c2cc(C(=O)Nc3cc4cc(-c5cnn(C)c5)ccc4cn3)ccn2)CC1,IC50,second compound 0.0316 µM,< 3.16 nM
same,IC50,second compound 0.1 µM,< 3.16 nM
same,IC50,second compound 0.316 µM,< 3.16 nM
same,IC50,second compound 1 µM,< 3.16 nM
same,IC50,second compound 3.16 µM,< 3.16 nM
same,IC50,second compound 10 µM,< 3.16 nM
same,"viability, T/C","second compound 0.0316 µM, first compound 0.00316 µM",25.1%
same,"viability, T/C","second compound 0.0316 µM, first compound 0.01 µM",8.53%
same,"viability, T/C",[1],7.87%
same,"viability, T/C",[2],4.18%
same,"viability, T/C",[3],3.57%
same,"viability, T/C",[4],2.49%
same,"viability, T/C","second compound 0.1 µM, first compound 0.00316 µM",14.1%
same,"viability, T/C","second compound 0.1 µM, first compound 0.01 µM",7.89%
same,"viability, T/C",[7],5.72%
same,"viability, T/C",[8],4.71%
same,"viability, T/C",[9],3.63%
same,"viability, T/C",[10],2.79%
same,"viability, T/C","second compound 0.316 µM, first compound 0.00316 µM",1.72%
same,"viability, T/C","second compound 0.316 µM, first compound 0.01 µM",1.95%
same,"viability, T/C",[13],1.32%
same,"viability, T/C",[14],0.72%
same,"viability, T/C",[15],0.73%
same,"viability, T/C",[16],0.47%
same,"viability, T/C","second compound 1 µM, first compound 0.00316 µM",0.79%
same,"viability, T/C","second compound 1 µM, first compound 0.01 µM",0.82%
same,"viability, T/C",[19],1.38%
same,"viability, T/C",[20],1.51%
same,"viability, T/C",[21],0.71%
same,"viability, T/C",[22],0.54%
same,"viability, T/C","second compound 3.16 µM, first compound 0.00316 µM",0.79%
same,"viability, T/C","second compound 3.16 µM, first compound 0.01 µM",0.71%
same,"viability, T/C",[25],0.85%
same,"viability, T/C",[26],0.75%
same,"viability, T/C",[27],0.6%
same,"viability, T/C",[28],0.43%
same,"viability, T/C","second compound 10 µM, first compound 0.00316 µM",0.44%
same,"viability, T/C","second compound 10 µM, first compound 0.01 µM",0.53%
same,"viability, T/C",[31],0.53%
same,"viability, T/C",[32],0.4%
same,"viability, T/C",[33],0.55%
same,"viability, T/C",[34],0.49%
COc1ccc([C@@H](O)c2cc(-c3ncnc4cc(N5CCOCC5)ccc34)c(F)cc2Cl)nn1 + CN1CCN(c2cc(C(=O)Nc3cc4cc(-c5cnn(C)c5)ccc4cn3)ccn2)CC1,IC50,second compound 0.0316 µM,4950 nM
same,IC50,second compound 0.1 µM,< 31.6 nM
same,IC50,second compound 0.316 µM,< 31.6 nM
same,IC50,second compound 1 µM,< 31.6 nM
same,IC50,second compound 3.16 µM,< 31.6 nM
same,IC50,second compound 10 µM,< 31.6 nM
same,"viability, T/C",[1],93.3%
same,"viability, T/C",[2],90%
same,"viability, T/C",[3],86%
same,"viability, T/C",[4],84.2%
same,"viability, T/C",[5],59.2%
same,"viability, T/C",[6],35%
same,"viability, T/C",[7],46.2%
same,"viability, T/C",[8],43.4%
same,"viability, T/C",[9],47%
same,"viability, T/C",[10],42.8%
same,"viability, T/C",[11],31.5%
same,"viability, T/C",[12],21.1%
same,"viability, T/C",[13],2.02%
same,"viability, T/C",[14],2.01%
same,"viability, T/C",[15],3%
same,"viability, T/C",[16],2.2%
same,"viability, T/C",[17],1.56%
same,"viability, T/C",[18],2.98%
same,"viability, T/C",[19],0.64%
same,"viability, T/C",[20],0.77%
same,"viability, T/C",[21],0.64%
same,"viability, T/C",[22],0.69%
same,"viability, T/C",[23],0.55%
same,"viability, T/C",[24],2.27%
same,"viability, T/C",[25],1.08%
same,"viability, T/C",[26],2.43%
same,"viability, T/C",[27],1.6%
same,"viability, T/C",[28],1%
same,"viability, T/C",[29],2.06%
same,"viability, T/C",[30],1.3%
same,"viability, T/C",[31],0.75%
same,"viability, T/C",[32],0.99%
same,"viability, T/C",[33],1.44%
same,"viability, T/C",[34],1.58%
same,"viability, T/C",[35],1.58%
same,"viability, T/C",[36],1.69%
COc1cccc2c1C(=O)c1c(O)c3c(c(O)c1C2=O)CC(O)(C(=O)CO)CC3OC1CC(N)C(O)C(C)O1 (stereo not given) + CN1CCN(c2cc(C(=O)Nc3cc4cc(-c5cnn(C)c5)ccc4cn3)ccn2)CC1,IC50,second compound 0.0316 µM,< 31.6 nM
same,IC50,second compound 0.1 µM,< 31.6 nM
same,IC50,second compound 0.316 µM,< 31.6 nM
same,IC50,second compound 1 µM,< 31.6 nM
same,IC50,second compound 3.16 µM,< 31.6 nM
same,IC50,second compound 10 µM,< 31.6 nM
same,"viability, T/C",[1],31.7%
same,"viability, T/C",[2],11.8%
same,"viability, T/C",[3],7.2%
same,"viability, T/C",[4],5.47%
same,"viability, T/C",[5],0.87%
same,"viability, T/C",[6],4.47%
same,"viability, T/C",[7],19.7%
same,"viability, T/C",[8],11.4%
same,"viability, T/C",[9],8.05%
same,"viability, T/C",[10],3.31%
same,"viability, T/C",[11],1.71%
same,"viability, T/C",[12],4.36%
same,"viability, T/C",[13],1.75%
same,"viability, T/C",[14],1.55%
same,"viability, T/C",[15],1.57%
same,"viability, T/C",[16],0.79%
same,"viability, T/C",[17],1.62%
same,"viability, T/C",[18],3.91%
same,"viability, T/C",[19],0.91%
same,"viability, T/C",[20],0.64%
same,"viability, T/C",[21],0.76%
same,"viability, T/C",[22],0.97%
same,"viability, T/C",[23],1.41%
same,"viability, T/C",[24],4.08%
same,"viability, T/C",[25],1.18%
same,"viability, T/C",[26],1.91%
same,"viability, T/C",[27],0.9%
same,"viability, T/C",[28],0.76%
same,"viability, T/C",[29],2.8%
same,"viability, T/C",[30],3.09%
same,"viability, T/C",[31],0.55%
same,"viability, T/C",[32],0.59%
same,"viability, T/C",[33],1.41%
same,"viability, T/C",[34],0.97%
same,"viability, T/C",[35],0.51%
same,"viability, T/C",[36],1.61%
O=c1[nH]cc(F)c(=O)[nH]1 + CN1CCN(c2cc(C(=O)Nc3cc4cc(-c5cnn(C)c5)ccc4cn3)ccn2)CC1,IC50,second compound 0.0316 µM,8770 nM
same,IC50,second compound 0.1 µM,< 31.6 nM
same,IC50,second compound 0.316 µM,< 31.6 nM
same,IC50,second compound 1 µM,< 31.6 nM
same,IC50,second compound 3.16 µM,< 31.6 nM
same,IC50,second compound 10 µM,< 31.6 nM
same,"viability, T/C",[1],94.5%
same,"viability, T/C",[2],89.6%
same,"viability, T/C",[3],88.8%
same,"viability, T/C",[4],83%
same,"viability, T/C",[5],55.9%
same,"viability, T/C",[6],49.4%
same,"viability, T/C",[7],41.8%
same,"viability, T/C",[8],52.2%
same,"viability, T/C",[9],47.8%
same,"viability, T/C",[10],41.9%
same,"viability, T/C",[11],31.5%
same,"viability, T/C",[12],29.9%
same,"viability, T/C",[13],3.11%
same,"viability, T/C",[14],2.75%
same,"viability, T/C",[15],3.62%
same,"viability, T/C",[16],2.92%
same,"viability, T/C",[17],2.73%
same,"viability, T/C",[18],2.79%
same,"viability, T/C",[19],0.65%
same,"viability, T/C",[20],0.89%
same,"viability, T/C",[21],0.91%
same,"viability, T/C",[22],0.83%
same,"viability, T/C",[23],0.68%
same,"viability, T/C",[24],0.7%
same,"viability, T/C",[25],0.68%
same,"viability, T/C",[26],1.36%
same,"viability, T/C",[27],1.24%
same,"viability, T/C",[28],0.98%
same,"viability, T/C",[29],1.14%
same,"viability, T/C",[30],1.44%
same,"viability, T/C",[31],0.57%
same,"viability, T/C",[32],0.53%
same,"viability, T/C",[33],0.54%
same,"viability, T/C",[34],0.77%
same,"viability, T/C",[35],0.83%
same,"viability, T/C",[36],0.73%
